The text below walks through data of US8937062B2, “Compositions and methods for treating, reducing, ameliorating, or preventing infections caused by antibacterial drug-resistant bacteria” (Bausch & Lomb Incorporated, priority 2007, dated 2015).

Molecules are shown by their SMILES. Values after ≈ are worked out from the molar mass of the structure shown. Read-outs that look alike come from different tables or passages of the source.

The subject of assay [1] is Methicillin-Resistant S. aureus Isolates. The experiment in a line: In vitro anti-bacterial activity, fourth test, Table 5. Type of assay: cell-based, Staphylococcus aureus. The note with it: Staphylococcus aureus, read-out: MIC90. The procedure: In a fourth test, the anti-bacterial activity of the compound having Formula IV was tested against some methicillin-resistant S. aureus bacteria strains and compared to the anti-bacterial activity of three commercially available antibiotics: nadifloxacin (“NDFX”), ofloxacin (“OFLX”), and sparfloxacin (“SPFX”).

Assay [2] has as its system APC-resistant Haemophilus influenza. As to the kind of experiment: MIC90, agar plate dilution method (NCCLS), Table 2. The note with it: for MIC90: Haemophilus. Format: cell-based. On the procedure: (§1) The MIC90 values for this test were determined by the agar plate dilution method according to the National Committee for Clinical Laboratory Standards (“NCCLS”).
Assay [3] deals with GM-resistant P. aeruginosa. As to the kind of experiment: MIC90, agar plate dilution method (NCCLS), Table 2. Format: cell-based. As to conditions: 10 isolates; for MIC90: Pseudomonas aeruginosa. On the procedure: as §1
The subject of a further assay is GM-resistant S. aureus. The experiment in a line: MIC90, agar plate dilution method (NCCLS), Table 2. Type of assay: cell-based. As to conditions: 10 isolates; for MIC90: Staphylococcus aureus. The procedure: as §1
The subject of assay [4] is OFLX-resistant Enterobacteriaceae. As to the kind of experiment: MIC90, agar plate dilution method (NCCLS), Table 2. Format: cell-based. The procedure:
as §1

Another assay deals with OFLX-resistant S. aureus. The experiment in a line: MIC90, agar plate dilution method (NCCLS), Table 2. Format: cell-based. The note with it: 10 isolates; for MIC90: Staphylococcus aureus. On the procedure: as §1
For assay [5], the system named is PCG-resistant S. pneumoniae. As to the kind of experiment: MIC90, agar plate dilution method (NCCLS), Table 2. Type of assay: cell-based. As to conditions: 10 isolates; for MIC90: Streptococcus pneumoniae. On the procedure: as §1
The test system of assay [6] is methicillin-resistant S. aureus. As to the kind of experiment: MIC90, Japanese Society of Chemotherapy guidelines (1993), Table 3. Format: cell-based. The note with it: Staphylococcus aureus, read-out: MIC90. The procedure: (§2) In a second test, compounds having Formulae IV and V, their racemic mixture, and OFLX were tested in vitro against S. aureus strains that are resistant to methicillin or penicillin. The test was conducted according to the guidelines of the Japanese Society of Chemotherapy (1993).

For assay [7], the system named is penicillin-resistant S. aureus. The assay is described as above. Type of assay: cell-based. As to conditions: Staphylococcus aureus, read-out: MIC90. The procedure:
as §2

Where [8] appears, read: ATCC33591, Staphylococcus aureus (ATCC 33591).
The mark [9] stands for this setting: ATCC33592, Staphylococcus aureus (ATCC 33592).
[10] abbreviates: ATCC33593, Staphylococcus aureus (ATCC 33593).
The mark [11] stands for this setting: Staphylococcus aureus (No. 395).
Setting [12] is: Staphylococcus aureus (No. 415).
The mark [13] stands for this setting: Staphylococcus aureus (No. 419).
Where [14] appears, read: Staphylococcus aureus (No. 420).
Setting [15] is: Staphylococcus aureus (No. 421).

With `CC1CCc2c(N3CCC(O)CC3)c(F)cc3c(=O)c(C(=O)O)cn1c23` (stereo not shown) [NDFX, nadifloxacin], the MIC90 in assay [1] (setting [8]) came to 0.006 µg/mL (≈ 0.0166 µM); in assay [1] (setting [9]), 0.05 µg/mL (≈ 0.139 µM); in assay [1] (setting [10]), 0.024 µg/mL (≈ 0.0666 µM); in [1] (setting [11]), 0.024 µg/mL (≈ 0.0666 µM); in assay [1] (setting [12]), 0.1 µg/mL (≈ 0.277 µM); in [1] (setting [13]), 0.39 µg/mL (≈ 1.08 µM). For the same compound, the MIC90 in [1] (setting [14]) and in [1] (setting [15]) was 0.78 µg/mL (≈ 2.16 µM) each time.

On to `C[C@@H]1CN(c2c(F)c(N)c3c(=O)c(C(=O)O)cn(C4CC4)c3c2F)C[C@H](C)N1` [SPFX, sparfloxacin], for which the MIC90 was 0.024 µg/mL (≈ 0.0612 µM) in assay [1] (setting [8]); 0.1 µg/mL (≈ 0.255 µM) in assay [1] (setting [9]); 0.024 µg/mL (≈ 0.0612 µM) in assay [1] (setting [10]); 0.05 µg/mL (≈ 0.127 µM) in assay [1] (setting [11]); 0.2 µg/mL (≈ 0.51 µM) in assay [1] (setting [12]); 1.56 µg/mL (≈ 3.98 µM) in assay [1] (setting [13]). In addition, the MIC90 in [1] (setting [14]) stood at 0.78 µg/mL (≈ 1.99 µM); in [1] (setting [15]), 0.39 µg/mL (≈ 0.994 µM).

Turning to `O=C1CCN(c2c(F)cc3c(=O)c(C(=O)O)cn(C4CC4)c3c2Cl)CCN1` [VI], the “MIC90 Range” value was “≦0.06 μg/ml” in assay [2] (APC-resistant Haemophilus influenza., 10 isolates); 0.5 to 64 µg/mL in assay [3]; “≦0.006-4 μg/ml” in the assay on GM-resistant S. aureus; 0.25 to 8 µg/mL with OFLX-resistant S. aureus; 0.13 to 0.25 µg/mL in assay [5]. For the same compound, the MIC90 in [2] (read-out: MIC90 Geometric Mean) is not above 0.06 µg/mL; in assay [2] (read-out: MIC90 Value), not above 0.06 µg/mL; in assay [3] (read-out: MIC90 Geometric Mean) it was 6.96 µg/mL (≈ 17.7 µM); in assay [3] (read-out: MIC90 Value), 32 µg/mL (≈ 81.3 µM); with GM-resistant S. aureus (read-out: MIC90 Geometric Mean) it was 0.43 µg/mL (≈ 1.09 µM); in the assay on GM-resistant S. aureus (read-out: MIC90 Value) it was 4 µg/mL (≈ 10.2 µM). Besides, the MIC90 was 32 µg/mL (≈ 81.3 µM) in assay [4] (read-out: MIC90 Geometric Mean); 32 µg/mL (≈ 81.3 µM) in [4] (read-out: MIC90 Value); 1.52 µg/mL (≈ 3.86 µM) in the assay with OFLX-resistant S. aureus (read-out: MIC90 Geometric Mean); 4 µg/mL (≈ 10.2 µM) in the assay on OFLX-resistant S. aureus (read-out: MIC90 Value); 0.14 µg/mL (≈ 0.356 µM) in assay [5] (read-out: MIC90 Geometric Mean); 0.13 µg/mL (≈ 0.33 µM) in [5] (read-out: MIC90 Value).

Turning to `N[C@H]1CCCCN(c2c(F)cc3c(=O)c(C(=O)O)cn(C4CC4)c3c2Cl)C1` [V], the MIC90 in [6] (ATCC33591, S. aureus (ATCC 33591)) came to 0.1 µg/mL (≈ 0.254 µM); in [6] (ATCC33592, S. aureus (ATCC 33592)), 0.05 µg/mL (≈ 0.127 µM); in assay [6] (ATCC33593, S. aureus (ATCC 33593)), 0.05 µg/mL (≈ 0.127 µM); in assay [6] (S. aureus (No. 395)), 0.1 µg/mL (≈ 0.254 µM); in assay [6] (S. aureus (No. 415)), 0.05 µg/mL (≈ 0.127 µM); in [6] (S. aureus (No. 419)) it was 0.1 µg/mL (≈ 0.254 µM). Moreover, the MIC90 in assay [6] (S. aureus (No. 420)) was determined as 0.05 µg/mL (≈ 0.127 µM); in [6] (S. aureus (No. 421)), 0.1 µg/mL (≈ 0.254 µM); in [7] (ATCC11632, S. aureus (ATCC 11632)) it was 0.05 µg/mL (≈ 0.127 µM); in assay [7] (ATCC13301, S. aureus (ATCC 13301)), 0.05 µg/mL (≈ 0.127 µM).
